Results as given in patent publication US9610273B2, “Method for the treatment of hypercholesterolemia” (SAMI LABS LIMITED, priority 2014, dated 2017).
Marks after values point to notes of the source that are not given here.

Key:
[1] = tested on: C57 mice on high fat diet (60 kcal % Fat); assay: Effect of Calebin A on serum clinical chemistry parameters in high fat diet obese mice (hypercholesterolemia and hyperlipidemia); type: in vivo; details: for change in mean Albumin values: female animals, considered incidental; for ALT/SGPT / AST/SGOT / Albumin / Glucose / Total Cholesterol / Total Protein / Triglycerides / HDL / LDL / VLDL: 28 days, serum, n = 5; for ALT/SGPT / AST/SGOT / Albumin / Glucose / Total Cholesterol / Total Protein / Triglycerides: Mean ± SD; for HDL / LDL / VLDL: mean
Description: d. Diet: The animals were fed ad libitum with AMRUT Laboratory Animal feed manufactured by Pranav Agro Industries Limited, Sangli, Maharastra throughout the acclimatization Open Source Diet D12450B diet (with 10 kcal % Fat) and Open Source Diet D12492 High fat diet (with 60 kcal % Fat) manufactured by Research Diet Inc, USA procured from Indus Marketing, Hyderabad, Andhra Pradesh, INDIA was used for induction of obesity and the main study.
Grouping of animals was done on the last day of acclimatization by body weight randomization and stratification method.
The animals were divided into 5 groups viz., Group 1, 2, 3, 4 and 5 consisting of 10 animals (5 male and 5 female) each.
a. Dose Volume: Dose volume/animal=10 ml/kg body weight for all animals throughout the study period
b. Obesity induction: The G1 Control group animals were fed with normal control diet feed D12450B containing 10 kcal % fat and the G2 to G5 group animals were fed with high fat diet feed D12492 containing 60 kcal % fat during the induction of obesity and during main study. Obesity induction was done considering the scientific rationale that obesity is a serious risk factor for hypercholesterolemia.
c. Main Study: The main study was started after the induction of obesity. The 3 doses of Calebin A was administered to animals from Day 29 daily consecutively for a period of 28 days. The feeding of diets continued in the main study in a similar way as performed in induction of obesity. The G1 Control and G2 High fat diet control group animals were administered with 0.5% CMC (Carboxy Methyl Cellulose) while other group animals received test item from Day 29 to Day 56 of the study period. The dose volume of administration was maintained according to the weekly body weight of individual animals.
d. Duration of the study: The total duration of the study was 61 days (5 days Acclimatization period+28 days Induction of obesity+[…] Main study).
The raw data obtained from the present study were subjected to computer statistical processing. The computer printout of the data (in the form of appendix) was verified with the original raw data. After verification, the data was subjected to One-way ANOVA (Analysis of Variance) with Dunnett's post test for the data on body weights, hematology and clinical chemistry parameters, organ weights using GraphPad Prism version 5.01, GraphPad Software. All analyses and comparisons was evaluated at the 95% level of confidence (P<0.05), indicated by the designated by the superscripts of a where G1 is compared to G3, G4, G5, and G6 and b where G2 is compared to G3, G4, G5, and G6 throughout the report as stated below: *: Statistically significant (P<0.05) wherever applicable.
At the completion of the study period, blood samples were collected from all the animals in tubes containing potassium ethylene […] tetra acetic acid (K2-EDTA) anticoagulant for hematology and without anticoagulant for clinical chemistry. The blood samples collected in tubes without anticoagulant were centrifuged at 3000 rpm for 10 minutes to obtain serum. Blood samples were collected humanely from retro-orbital plexus puncture method under mild ether anesthesia with the help of a fine capillary tube. The following clinical chemistry parameters were analyzed.
The following clinical chemistry parameters (TABLE III) were analyzed using the “Erba Mannheim Chem Touch analyzer” (Transasia Bio-Medicals Ltd, India) from serum samples.

mice = assay: Acute Oral Toxicity of Calebin A; type: in vivo
Procedure: No mortality was observed up to 2000 mg/kg p.o. in mice up to two weeks of observation.

[2] = conclusion, doses of 5, 10 and 20 mg/kg body weight, hypercholesterolemic mammals
[3] = female mice, G3 5 mg/kg + High fat diet (60 kcal % Fat)
[4] = female mice, G4 10 mg/kg + High fat diet (60 kcal % Fat)
[5] = female mice, G5 20 mg/kg + High fat diet (60 kcal % Fat)
[6] = male and female animals, G3, G4, G5 (5, 10, 20 mg/kg + High fat diet) compared to G2 High fat diet Control
[7] = male animals, G3, G4, G5 (5, 10, 20 mg/kg + High fat diet) compared to G2 High fat diet Control
[8] = male mice, G3 5 mg/kg + High fat diet (60 kcal % Fat)
[9] = male mice, G4 10 mg/kg + High fat diet (60 kcal % Fat)
[10] = male mice, G5 20 mg/kg + High fat diet (60 kcal % Fat)

`COc1cc(/C=C/C(=O)COC(=O)/C=C/c2ccc(O)c(OC)c2)ccc1O` [Calebin A] was tested, and the “HDL concentrations in the blood” value [1, 2] was “increased”, the “LDL concentrations in the blood” value [1, 2] was “decreased” and the “VLDL concentrations in the blood” value [1, 2] was “decreased”. The serum triglyceride concentrations ([1]; conclusion, doses of 5, 10 and 20 mg/kg body weight, hyperlipidemic mammals) was “lowered”, the “change in mean Albumin values” ([1]; G5 20 mg/kg + High fat diet compared to G1 Control (10 kcal % Fat)) was “statistically significant decrease” and the “change in mean Albumin values” ([1]; G5 20 mg/kg + High fat diet compared to G2 High fat diet Control) was “statistically significant decrease”. For the same compound, the ALT/SGPT [1, 3] was 41.73 ± 5.39 IU/L, the AST/SGOT [1, 3] was 80.51 ± 32.35 IU/L and the Albumin [1, 3] was 2.82 ± 0.19 g/dL. For the same compound, the Glucose [1, 3] was 134.52 ± 26.85 mg/dL, the “Total Cholesterol” value [1, 3] was 75.71 ± 13.90 mg/dL and the “Total Protein” value [1, 3] was 5.37 ± 0.80 g/dL. The Triglycerides [1, 3] was 60.15 ± 10.25 mg/dL, the HDL [1, 3] was 81.59 mg/dL and the LDL [1, 3] was 78.68 mg/dL. It also gave a VLDL [1, 3] of 15.14 mg/dL, an ALT/SGPT [1, 4] of 63.29 ± 32.86 IU/L and an AST/SGOT [1, 4] of 79.89 ± 50.05 IU/L. The Albumin [1, 4] was 2.80 ± 0.38 g/dL, the Glucose [1, 4] was 112.34 ± 11.35 mg/dL and the “Total Cholesterol” value [1, 4] was 47.54 ± 14.21 mg/dL. For the same compound, the “Total Protein” value [1, 4] was 4.91 ± 0.20 g/dL, the Triglycerides [1, 4] was 59.70 ± 4.33 mg/dL and the HDL [1, 4] was 66.85 mg/dL. The LDL [1, 4] was 61.20* ^b ± mg/dl, the VLDL [1, 4] was 9.51 mg/dL and the ALT/SGPT [1, 5] was 55.51 ± 16.94 IU/L. The AST/SGOT [1, 5] was 79.91 ± 36.82 IU/L, the Glucose [1, 5] was 93.58 ± 11.49 mg/dL and the “Total Cholesterol” value [1, 5] was 69.14 ± 21.88 mg/dL. The “Total Protein” value [1, 5] was 4.88 ± 0.27 g/dL, the Triglycerides [1, 5] was 52.88 ± 4.56 mg/dL and the HDL [1, 5] was 66.67 mg/dL. For the same compound, the LDL [1, 5] was 52.31** ^b ± mg/dl, the VLDL [1, 5] was 13.83 mg/dL and the “change in mean Low Density Lipoproteins values” [1, 6] was “decrease”. The “change in mean Very Low Density Lipoproteins values” [1, 6] was “decrease”, the “change in mean high Density Lipoproteins values” ([1]; male and female animals, G4, G5 (10, 20 mg/kg + High fat diet) compared to G2 High fat diet Control) was “increase” and the “change in mean Total Cholesterol values” [1, 7] was “decrease”. The “change in mean Triglycerides values” [1, 7] was “decrease”, the ALT/SGPT [1, 8] was 64.35 ± 24.58 IU/L and the AST/SGOT [1, 8] was 86.99 ± 35.22 IU/L. The Albumin [1, 8] was 2.73 ± 0.23 g/dL, the Glucose [1, 8] was 159.30 ± 17.02 mg/dL and the “Total Cholesterol” value [1, 8] was 63.46 ± 16.64 mg/dL. For the same compound, the “Total Protein” value [1, 8] was 4.74 ± 0.23 g/dL, the Triglycerides [1, 8] was 76.53 ± 17.11 mg/dL and the HDL [1, 8] was 20.46 mg/dL. It also gave an LDL [1, 8] of 85.55 mg/dL, a VLDL [1, 8] of 12.69 mg/dL and an ALT/SGPT [1, 9] of 54.81 ± 13.58 IU/L. For the same compound, the AST/SGOT [1, 9] was 89.48 ± 35.58 IU/L, the Albumin [1, 9] was 2.43 ± 0.42 g/dL and the Glucose [1, 9] was 130.49 ± 21.28 mg/dL. The “Total Protein” value [1, 9] was 5.08 ± 0.49 g/dL, the HDL [1, 9] was 41.80 mg/dL and the LDL [1, 9] was 97.45 mg/dL. For the same compound, the VLDL [1, 9] was 12.37*^b ± mg/dl, the ALT/SGPT [1, 10] was 48.44 ± 9.73 IU/L and the AST/SGOT [1, 10] was 90.17 ± 25.87 IU/L. For the same compound, the Albumin [1, 10] was 2.66 ± 0.17 g/dL, the Glucose [1, 10] was 105.89 ± 37.17 mg/dL and the “Total Cholesterol” value [1, 10] was 70.48 ± 14.59 mg/dL. For the same compound, the “Total Protein” value [1, 10] was 4.42 ± 0.48 g/dL, the HDL [1, 10] was 47.26 mg/dL and the LDL [1, 10] was 94.46 mg/dL. For the same compound, the VLDL [1, 10] was 14.10 mg/dL, the Aggression (mice; mouse, in vivo, po) was “Aggression = Nil” and the Atexia (mice; mouse, in vivo, po) was “Atexia = Nil”. For the same compound, the Blanching (mice; mouse, in vivo, po) was “Blanching = Nil”, the “Clonic Convulsions” value (mice; mouse, in vivo, po) was “Clonic Convulsions = Nil” and the Corneal (mice; mouse, in vivo, po) was “Corneal = No effect”. For the same compound, the Cyanosis (mice; mouse, in vivo, po) was “Cyanosis = Nil”, the Diarrhea (mice; mouse, in vivo, po) was “Diarrhea = Nil” and the Excitation (mice; mouse, in vivo, po) was “Excitation = Nil”. For the same compound, the Fear (mice; mouse, in vivo, po) was “Fear = Nil”, the “Fecal Output” value (mice; mouse, in vivo, po) was “Fecal Output = Normal” and the “General Locomotor Activity” value (mice; mouse, in vivo, po) was “Normal”. For the same compound, the “General Movement” value (mice; mouse, in vivo, po) was “General Movement = Normal”, the Hyperaemia (mice; mouse, in vivo, po) was “Hyperaemia = Nil” and the “Muscular Weakness” value (mice; mouse, in vivo, po) was “Muscular Weakness = Nil”. For the same compound, the Passive (mice; mouse, in vivo, po) was “Passive = Nil”, the “Pilo Erection” value (mice; mouse, in vivo, po) was “Pilo Erection = Nil” and the Pinnal (mice; mouse, in vivo, po) was “Pinnal = No effect”. For the same compound, the “Respiration Depth” value (mice; mouse, in vivo, po) was “Respiration Depth = Normal”, the “Respiration Rate” value (mice; mouse, in vivo, po) was “Respiration Rate = Normal” and the Salivation (mice; mouse, in vivo, po) was “Salivation = Nil”. For the same compound, the “Tonic Convulsion” value (mice; mouse, in vivo, po) was “Tonic Convulsion = Nil”, the Tremors (mice; mouse, in vivo, po) was “Tremors = Nil” and the “Urine Output” value (mice; mouse, in vivo, po) was “Urine Output = Normal”. For the same compound, the mortality (mice; up to 2000 mg/kg p.o., mice, up to two weeks of observation) was “No mortality”.
